Reference: ChEMBL document CHEMBL4483862, “Open-source discovery of chemical leads for next-generation chemoprotective antimalarials” (2018)

System: Plasmodium berghei
Test: Luciferase/luciferin-expressing antifolate-resistant parasites were used to infect a culture of HepG2 cells that were pre-incubated with compounds. Infected hepatocytes emit light due to the luciferase reaction. Assay results are presented as the percent inhibition of light emission compared to control. […]
Format: functional
Settings: sporozoite; for IC90: read-out: LUCIFERASE INFECTION ASSAY - IC90
[1] = read-out: LUCIFERASE INFECTION ASSAY - IC50

SMILES | IC90 [µM] | also measured
COCCNc1ccc([N+](=O)[O-])cc1C(=O)Nc1nc2c(C)cccc2s1 | > 10 | IC50 (HEPG2TOX_HILL_SLOPE 9.09, HEPG2TOX_R_SQUARED 0.757, PBLUC_HILL_SLOPE 15.6, PBLUC_R_SQUARED 0.06, read-out: LUCIFERASE INFECTION ASSAY - IC50): 9.61 µM
Cc1cccc(Cn2nc(C(C)(C)C)cc2C(=O)Nc2cccc(OC(F)(F)F)c2)c1 | > 7.65 | IC50 (PBLUC_HILL_SLOPE 1.23, PBLUC_R_SQUARED 0.161, read-out: LUCIFERASE INFECTION ASSAY - IC50): > 7.65 µM
Cc1ccc(-n2c(SCCCC(=O)c3cccs3)nnc2-c2ccccc2)cc1C | > 10 | IC50 (FFLUC_HILL_SLOPE 1.75, FFLUC_R_SQUARED 0.116, read-out: LUCIFERASE INFECTION ASSAY - IC50): > 10 µM
COc1ccccc1N(C(=O)c1cccc(C#N)c1)c1nc2ccccc2s1 | > 10 | IC50 [1]: > 10 µM
CCn1c(-c2ccccc2)c(C(=O)COc2ccc(Cl)c(C)c2)c2ccccc21 | > 10 | IC50 (HEPG2TOX_HILL_SLOPE 7.06, HEPG2TOX_R_SQUARED 0.488, PBLUC_HILL_SLOPE 0.342, PBLUC_R_SQUARED 0.631, read-out: LUCIFERASE INFECTION ASSAY - IC50): 0.357 µM
Cc1nn(-c2ccccc2)c2c1C1(C(=O)Nc3ccccc31)N1N=NN(c3ccccc3)C1=N2 (configuration not stated) | > 10 | IC50 (PBLUC_HILL_SLOPE 0.947, PBLUC_R_SQUARED 0.0755, read-out: LUCIFERASE INFECTION ASSAY - IC50): > 10 µM
CCCc1ccc(C(=O)/C(C#N)=c2\s/c(=C\c3cccs3)c(=O)n2-c2cc(C)ccc2C)cc1 | > 10 | IC50 (PBLUC_HILL_SLOPE 3.09, PBLUC_R_SQUARED 0.669, read-out: LUCIFERASE INFECTION ASSAY - IC50): 6.42 µM
Cc1oc(C(C)(C)C)cc1C(=O)Nc1ccc([N+](=O)[O-])cc1 | > 10.9 | IC50 [1]: > 10.9 µM
CCOC(=O)C1=C(C)NC(C)=C(C(=O)OCC)C1C(=O)OCC(=O)Nc1c(Br)cc(C)cc1Br | > 10 | IC50 (HEPG2TOX_HILL_SLOPE 0.766, HEPG2TOX_R_SQUARED 0.947, PBLUC_HILL_SLOPE 2.01, PBLUC_R_SQUARED 0.575, read-out: LUCIFERASE INFECTION ASSAY - IC50): 4.48 µM
C#CCOc1ccc(CNCCc2ccccc2)cc1OCC | > 9.54 | IC50 (PBLUC_HILL_SLOPE 6.85, PBLUC_R_SQUARED 0.0184, read-out: LUCIFERASE INFECTION ASSAY - IC50): > 9.54 µM
N#CC1(c2ccccc2)C/C(=C\c2cccs2)C(=O)/C(=C/c2cccs2)C1 (configuration not stated) | > 10 | IC50 (FFLUC_HILL_SLOPE 0.232, FFLUC_R_SQUARED 0.325, read-out: LUCIFERASE INFECTION ASSAY - IC50): > 10 µM
Cc1ccc(-n2c(C)cc(/C=C3\N=C4CCCCCN4C3=O)c2C)c(C)c1 | > 10 | IC50 [1]: > 10 µM
CN(C)c1c(F)cc(C(=O)Nc2cc(C(F)(F)F)cc(C(F)(F)F)c2)cc1F | > 8 | IC50 (HEPG2TOX_HILL_SLOPE 10.3, HEPG2TOX_R_SQUARED 0.772, PBLUC_HILL_SLOPE 1.36, PBLUC_R_SQUARED 0.505, read-out: LUCIFERASE INFECTION ASSAY - IC50): > 8 µM
O=C(NCc1ccc(-c2cccs2)s1)c1ccc([N+](=O)[O-])s1 | > 9.42 | IC50 (PBLUC_HILL_SLOPE 15, PBLUC_R_SQUARED 0.438, read-out: LUCIFERASE INFECTION ASSAY - IC50): 8.73 µM
COc1ccccc1N1CCN(c2oc(-c3ccccc3Cl)nc2S(=O)(=O)c2ccc(C)cc2)CC1 | > 10 | IC50 (PBLUC_HILL_SLOPE 1.06, PBLUC_R_SQUARED 0.3, read-out: LUCIFERASE INFECTION ASSAY - IC50): > 10 µM
OCCNc1ncnc2c1c(-c1ccccc1)cn2-c1ccc(Cl)cc1 | > 10 | IC50 (FFLUC_HILL_SLOPE 35.7, FFLUC_R_SQUARED 0.282, read-out: LUCIFERASE INFECTION ASSAY - IC50): > 10 µM
O=C(Nc1ncc(Cc2cccc(Cl)c2Cl)s1)c1ccc(-n2cncn2)nc1 | > 10 | IC50 (FFLUC_HILL_SLOPE 10.4, FFLUC_R_SQUARED 0.281, HEPG2TOX_HILL_SLOPE 2.29, HEPG2TOX_R_SQUARED 0.935, PBLUC_HILL_SLOPE 1.7, PBLUC_R_SQUARED 0.542, read-out: LUCIFERASE INFECTION ASSAY - IC50): 3.51 µM
COC1CC(O[C@H]2CC[C@]3(C)C4CC[C@]5(C)[C@@H](C6=CC(=O)OC6)CC[C@]5(O)[C@@H]4CC[C@]3(O)C2)OC(C)C1O (some centres not stated) | 0.177 | IC50 (HEPG2TOX_HILL_SLOPE 1.6, HEPG2TOX_R_SQUARED 0.898, PBLUC_HILL_SLOPE 2.36, PBLUC_R_SQUARED 0.616, read-out: LUCIFERASE INFECTION ASSAY - IC50): 0.0698 µM

SMILES | IC90 [µM] | also measured
COc1cc2c(cc1OC)C(c1ccccc1)N(CC(=O)Nc1c(C)cc(C)cc1Cl)CC2 (configuration not stated) | 9.2 | IC50 (HEPG2TOX_HILL_SLOPE 7.81, HEPG2TOX_R_SQUARED 0.408, PBLUC_HILL_SLOPE 9.86, PBLUC_R_SQUARED 0.196, read-out: LUCIFERASE INFECTION ASSAY - IC50): 7.36 µM
O=S(=O)(Nc1csc(C(F)(F)F)c1-c1ccccc1)c1cc(Cl)c(Cl)s1 | 6.91 | IC50 (FFLUC_HILL_SLOPE 1.1, FFLUC_R_SQUARED 0.492, HEPG2TOX_HILL_SLOPE 2.51, HEPG2TOX_R_SQUARED 0.937, PBLUC_HILL_SLOPE 4.37, PBLUC_R_SQUARED 0.518, read-out: LUCIFERASE INFECTION ASSAY - IC50): 4.18 µM
CC(=O)c1csc(NC(=O)c2ccc(CSc3ccccc3)o2)n1 | > 10 | IC50 [1]: > 10 µM
O=S(=O)(c1ccc2ccccc2c1)N1CCCC1c1nnc2ccccn12 (configuration not stated) | 5.59 | IC50 (PBLUC_HILL_SLOPE 2.1, PBLUC_R_SQUARED 0.614, read-out: LUCIFERASE INFECTION ASSAY - IC50): 1.96 µM
Cc1cccc(C2CC(=O)c3cnn(-c4nc(C)cc(C)n4)c3C2)c1 (configuration not stated) | 1.39 | IC50 (HEPG2TOX_HILL_SLOPE 1.23, HEPG2TOX_R_SQUARED 0.907, PBLUC_HILL_SLOPE 2.7, PBLUC_R_SQUARED 0.565, read-out: LUCIFERASE INFECTION ASSAY - IC50): 0.617 µM
Cc1ccc(NC(=O)N2CCCN(c3nc4ccc(Cl)cc4s3)CC2)cc1 | > 8.23 | IC50 (HEPG2TOX_HILL_SLOPE 1.45, HEPG2TOX_R_SQUARED 0.845, PBLUC_HILL_SLOPE 2.38, PBLUC_R_SQUARED 0.538, read-out: LUCIFERASE INFECTION ASSAY - IC50): 3.62 µM
O=C(CCn1cnc2ccccc2c1=O)Nc1ccc(Br)cn1 | 4.76 | IC50 (HEPG2TOX_HILL_SLOPE 3.2, HEPG2TOX_R_SQUARED 0.878, PBLUC_HILL_SLOPE 4.82, PBLUC_R_SQUARED 0.722, read-out: LUCIFERASE INFECTION ASSAY - IC50): 3.02 µM
COc1ccc(-c2cnc3cnc(-c4ccc(C(=O)NC5CCCC5)cc4)cn23)cc1 | 7.76 | IC50 (PBLUC_HILL_SLOPE 11.3, PBLUC_R_SQUARED 0.296, read-out: LUCIFERASE INFECTION ASSAY - IC50): 6.39 µM
CC(=O)O/N=C1/CCn2c1c(C)c1ccccc12 | 5.74 | IC50 (HEPG2TOX_HILL_SLOPE 1.28, HEPG2TOX_R_SQUARED 0.99, PBLUC_HILL_SLOPE 11.8, PBLUC_R_SQUARED 0.596, read-out: LUCIFERASE INFECTION ASSAY - IC50): 4.77 µM
N#CN=c1nc(/C=C/c2ccc(Br)cc2)[nH]c(-c2ccccc2O)n1 | 5.46 | IC50 (FFLUC_HILL_SLOPE 1.52, FFLUC_R_SQUARED 0.887, PBLUC_HILL_SLOPE 1.8, PBLUC_R_SQUARED 0.711, read-out: LUCIFERASE INFECTION ASSAY - IC50): 1.61 µM
Cc1ccc(NC(=O)c2csc(Cc3c(Cl)cccc3Cl)n2)cc1 | > 8.75 | IC50 [1]: > 8.75 µM
O=C(Cc1cn2ccsc2n1)NNC(=O)c1cccnc1Nc1cccc(C(F)(F)F)c1 | 7.63 | IC50 (HEPG2TOX_HILL_SLOPE 6.77, HEPG2TOX_R_SQUARED 0.513, PBLUC_HILL_SLOPE 2.49, PBLUC_R_SQUARED 0.696, read-out: LUCIFERASE INFECTION ASSAY - IC50): 3.16 µM
CCOC(=O)c1c(NC(=O)Cn2ncc(Cl)c(Cl)c2=O)sc(C(=O)NC)c1C | 6.18 | IC50 (HEPG2TOX_HILL_SLOPE 14.3, HEPG2TOX_R_SQUARED 0.883, PBLUC_HILL_SLOPE 2.04, PBLUC_R_SQUARED 0.801, read-out: LUCIFERASE INFECTION ASSAY - IC50): 2.11 µM
COc1ccc2[nH]c(C)c(-c3csc(NC(=O)c4ccccn4)n3)c2c1 | > 9.06 | IC50 (PBLUC_HILL_SLOPE 10.6, PBLUC_R_SQUARED 0.566, read-out: LUCIFERASE INFECTION ASSAY - IC50): 7.84 µM
Cn1c(CSCc2nc(-c3ccc(Cl)cc3)cs2)nnc1SCC(=O)Nc1ccc(Cl)cc1 | > 6.15 | IC50 (HEPG2TOX_HILL_SLOPE 16.7, HEPG2TOX_R_SQUARED 0.854, PBLUC_HILL_SLOPE 1.35, PBLUC_R_SQUARED 0.574, read-out: LUCIFERASE INFECTION ASSAY - IC50): > 6.15 µM
Clc1ccc(-c2csc3ncnc(Sc4nnc(N5CCOCC5)n4C4CC4)c23)cc1 | > 10 | IC50 (PBLUC_HILL_SLOPE 1.69, PBLUC_R_SQUARED 0.173, read-out: LUCIFERASE INFECTION ASSAY - IC50): 7.1 µM
Cc1cc(C)cc(N(CCC#N)C(=O)CSc2nc3cc(Cl)ccc3c(=O)n2Cc2ccccc2)c1 | > 10 | IC50 [1]: > 10 µM
COc1cccc(N2C(=O)C=CC2=O)c1 | > 16.2 | IC50 (FFLUC_HILL_SLOPE 1.51, FFLUC_R_SQUARED 0.52, PBLUC_HILL_SLOPE 2.51, PBLUC_R_SQUARED 0.451, read-out: LUCIFERASE INFECTION ASSAY - IC50): 10.2 µM
